Data: patent US20150105252A1, “SUBSTITUTED PYRAZOLES AS HERBICIDES” (E I DU PONT DE NEMOURS AND COMPANY, priority 2013, published 2015)

What was measured:
[1] = test system: blackgrass; experiment: Test D preemergence; assay type: in vivo, Alopecurus myosuroides; settings: Preemergence, scale 0 to 100
Outline: (§1)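 Scores of 0 (no effect) to 100 (complete control) come from visual comparison with untreated plants 14–21 days after spraying. Applications were made pre-emergence to silt loam or post-emergence to plants 2–18 cm tall.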

[2] = test system: galium; experiment: Test D preemergence; assay type: in vivo, Galium aparine; settings: Preemergence, scale 0 to 100
Source text: Seeds of plant species selected from bluegrass (annual bluegrass, Poa annua), blackgrass (Alopecurus myosuroides), canarygrass (littleseed canarygrass, Phalaris minor), chickweed (common chickweed, Stellaria media), galium (catchweed bedstraw, Galium aparine), bromegrass, downy (downy bromegrass, Bromus tectorum), field poppy (Papaver rhoeas), field violet (Viola arvensis), foxtail, green (green foxtail, Setaria viridis), deadnettle (henbit deadnettle, Lamium amplexicaule), ryegrass, Italian (Italian ryegrass, Lolium multiflorum), kochia (Kochia scoparia), lambsquarters (Chenopodium album), oilseed rape (Brassica napus), pigweed (redroot pigweed, Amaranthus retroflexus), chamomile (scentless chamomile, Matricaria inodora), speedwell (bird's-eye speedwell, Veronica persica), barley, spring (spring barley, Hordeum vulgare), wheat, spring (spring wheat, Triticum aestivum), buckwheat, wild (wild buckwheat, Polygonum convolvulus), mustard, wild (wild mustard, Sinapis arvensis), oat, wild (wild oat, Avena fatua), radish, wild (wild radish, Raphanus raphanistrum), windgrass (Apera spica-venti), Russian thistle (Salsola kali), barley, winter (winter barley, Hordeum vulgare), and wheat, winter (winter wheat, Triticum aestivum) were planted into a silt loam soil and treated preemergence with test chemicals formulated in a non-phytotoxic solvent mixture which included a surfactant.
At the same time, these species were planted in pots containing Redi-Earth® planting medium (Scotts Company, 14111 Scottslawn Road, Marysville, Ohio 43041) comprising spaghnum peat moss, vermiculite, wetting agent and starter nutrients and treated with postemergence applications of the test chemicals formulated in the same manner. Plants ranged in height from 2 to 18 cm (1- to 4-leaf stage). Treated plants and controls were maintained in a controlled growth environment for 14 to 21 days after which time all species were compared to controls and visually evaluated. Plant response ratings, summarized in Table D, are based on a scale of 0 to 100 where 0 is no effect and 100 is complete control. A dash (-) response means no test result.

[3] = test system: bromegrass, downy; experiment: Test D preemergence; assay type: in vivo, Bromus tectorum; settings: Preemergence, scale 0 to 100
Outline: as §1

[4] = test system: kochia; experiment: Test D preemergence; assay type: in vivo, Kochia scoparia; settings: Preemergence, scale 0 to 100
Outline: as §1

[5] = test system: lambsquarters; experiment: Test D preemergence; assay type: in vivo, Chenopodium album; settings: Preemergence, scale 0 to 100
Outline: as §1

[6] = test system: chamomile; experiment: Test D preemergence; assay type: in vivo, Matricaria inodora; settings: Preemergence, scale 0 to 100
Outline: as §1

[7] = test system: oat, wild; experiment: Test D preemergence; assay type: in vivo, Avena fatua; settings: Preemergence, scale 0 to 100
Outline: as §1

[8] = test system: bluegrass; experiment: Test D postemergence; assay type: in vivo, Poa annua; settings: scale 0 to 100
Outline: as §1

[9] = test system: canarygrass; experiment: Test D postemergence; assay type: in vivo, Phalaris minor; settings: scale 0 to 100
Outline: as §1

[10] = test system: bromegrass, downy; experiment: Test D postemergence; assay type: in vivo, Bromus tectorum; settings: scale 0 to 100
Outline: as §1

[11] = test system: field poppy; experiment: Test D postemergence; assay type: in vivo, Papaver rhoeas; settings: scale 0 to 100
Outline: as §1

[12] = test system: field violet; experiment: Test D postemergence; assay type: in vivo, Viola arvensis; settings: scale 0 to 100
Outline: as §1

[13] = test system: lambsquarters; experiment: Test D postemergence; assay type: in vivo, Chenopodium album; settings: scale 0 to 100
Outline: as §1

[14] = test system: oilseed rape; experiment: Test D postemergence; assay type: in vivo, Brassica napus; settings: scale 0 to 100
Outline: as §1

[15] = test system: chamomile; experiment: Test D postemergence; assay type: in vivo, Matricaria inodora; settings: scale 0 to 100
Outline: as §1

[16] = test system: speedwell; experiment: Test D postemergence; assay type: in vivo, Veronica persica; settings: scale 0 to 100
Outline: as §1

[17] = test system: mustard, wild; experiment: Test D postemergence; assay type: in vivo, Sinapis arvensis; settings: scale 0 to 100
Outline: as §1

[18] = test system: oat, wild; experiment: Test D postemergence; assay type: in vivo, Avena fatua; settings: scale 0 to 100
Outline: as §1

[19] = test system: radish, wild; experiment: Test D postemergence; assay type: in vivo, Raphanus raphanistrum; settings: scale 0 to 100
Outline: as §1

[20] = test system: windgrass; experiment: Test D postemergence; assay type: in vivo, Apera spica-venti; settings: scale 0 to 100
Outline: as §1

## CCCc1cc(C(=O)NC2CC2)nn1Cc1cc(C(F)(F)F)nn1C [Compound 202]
[1]; 31 g ai/ha
  Plant response rating, Blackgrass: 5
[1]; 62 g ai/ha
  Plant response rating, Blackgrass: 35
[1]; 125 g ai/ha
  Plant response rating, Blackgrass: 75
[1]; 250 g ai/ha
  Plant response rating, Blackgrass: 80
[2]; 62 g ai/ha
  Plant response rating, Galium: 35
[2]; 125 g ai/ha
  Plant response rating, Galium: 70
[2]; 250 g ai/ha
  Plant response rating, Galium: 100
[3]; 31 g ai/ha
  Plant response rating, Bromegrass, Downy: 25
[3]; 62 g ai/ha
  Plant response rating, Bromegrass, Downy: 35
[3]; 125 g ai/ha
  Plant response rating, Bromegrass, Downy: 35
[3]; 250 g ai/ha
  Plant response rating, Bromegrass, Downy: 50
[4]; 62 g ai/ha
  Plant response rating, Kochia: 100
[4]; 125 g ai/ha
  Plant response rating, Kochia: 100
[4]; 250 g ai/ha
  Plant response rating, Kochia: 100
[5]; 62 g ai/ha
  Plant response rating, Lambsquarters: 75
[5]; 125 g ai/ha
  Plant response rating, Lambsquarters: 100
[5]; 250 g ai/ha
  Plant response rating, Lambsquarters: 100
[6]; 31 g ai/ha
  Plant response rating, Chamomile: 5
[6]; 62 g ai/ha
  Plant response rating, Chamomile: 100
[6]; 125 g ai/ha
  Plant response rating, Chamomile: 100
[6]; 250 g ai/ha
  Plant response rating, Chamomile: 100
[7]; 62 g ai/ha
  Plant response rating, Oat, Wild: 15
[7]; 125 g ai/ha
  Plant response rating, Oat, Wild: 65
[7]; 250 g ai/ha
  Plant response rating, Oat, Wild: 100
[8]; Postemergence, 31 g ai/ha
  Bluegrass plant response rating: 20
[8]; Postemergence, 125 g ai/ha
  Bluegrass plant response rating: 25
[8]; Postemergence, 250 g ai/ha
  Bluegrass plant response rating: 35
[8]; postemergence, 62 g ai/ha
  Bluegrass plant response rating: 20
[9]; Postemergence, 31 g ai/ha
  Canarygrass plant response rating: 15
[9]; Postemergence, 125 g ai/ha
  Canarygrass plant response rating: 15
[9]; Postemergence, 250 g ai/ha
  Canarygrass plant response rating: 20
[9]; postemergence, 62 g ai/ha
  Canarygrass plant response rating: 15
[10]; Postemergence, 31 g ai/ha
  Bromegrass, Downy plant response rating: 25
[10]; Postemergence, 125 g ai/ha
  Bromegrass, Downy plant response rating: 35
[10]; Postemergence, 250 g ai/ha
  Bromegrass, Downy plant response rating: 35
[10]; postemergence, 62 g ai/ha
  Bromegrass, Downy plant response rating: 25
[11]; Postemergence, 31 g ai/ha
  Field Poppy plant response rating: 50
[11]; Postemergence, 125 g ai/ha
  Field Poppy plant response rating: 50
[11]; Postemergence, 250 g ai/ha
  Field Poppy plant response rating: 75
[11]; postemergence, 62 g ai/ha
  Field Poppy plant response rating: 50
[12]; Postemergence, 31 g ai/ha
  Field Violet plant response rating: 25
[12]; Postemergence, 125 g ai/ha
  Field Violet plant response rating: 45
[12]; Postemergence, 250 g ai/ha
  Field Violet plant response rating: 50
[12]; postemergence, 62 g ai/ha
  Field Violet plant response rating: 25
[13]; Postemergence, 31 g ai/ha
  Lambsquarters plant response rating: 50
[13]; Postemergence, 125 g ai/ha
  Lambsquarters plant response rating: 60
[13]; Postemergence, 250 g ai/ha
  Lambsquarters plant response rating: 80
[13]; postemergence, 62 g ai/ha
  Lambsquarters plant response rating: 50
[14]; Postemergence, 31 g ai/ha
  Oilseed Rape plant response rating: 40
[14]; Postemergence, 125 g ai/ha
  Oilseed Rape plant response rating: 50
[14]; Postemergence, 250 g ai/ha
  Oilseed Rape plant response rating: 60
[14]; postemergence, 62 g ai/ha
  Oilseed Rape plant response rating: 40
[15]; Postemergence, 31 g ai/ha
  Chamomile plant response rating: 55
[15]; Postemergence, 125 g ai/ha
  Chamomile plant response rating: 60
[15]; Postemergence, 250 g ai/ha
  Chamomile plant response rating: 65
[15]; postemergence, 62 g ai/ha
  Chamomile plant response rating: 55
[16]; Postemergence, 31 g ai/ha
  Speedwell plant response rating: 70
[16]; Postemergence, 125 g ai/ha
  Speedwell plant response rating: 75
[16]; Postemergence, 250 g ai/ha
  Speedwell plant response rating: 100
[16]; postemergence, 62 g ai/ha
  Speedwell plant response rating: 70
[17]; Postemergence, 31 g ai/ha
  Mustard, Wild plant response rating: 70
[17]; Postemergence, 125 g ai/ha
  Mustard, Wild plant response rating: 70
[17]; Postemergence, 250 g ai/ha
  Mustard, Wild plant response rating: 75
[17]; postemergence, 62 g ai/ha
  Mustard, Wild plant response rating: 70
[18]; Postemergence, 31 g ai/ha
  Oat, Wild plant response rating: 25
[18]; Postemergence, 125 g ai/ha
  Oat, Wild plant response rating: 30
[18]; Postemergence, 250 g ai/ha
  Oat, Wild plant response rating: 40
[18]; postemergence, 62 g ai/ha
  Oat, Wild plant response rating: 25
[19]; Postemergence, 31 g ai/ha
  Radish, Wild plant response rating: 55
[19]; Postemergence, 125 g ai/ha
  Radish, Wild plant response rating: 65
[19]; Postemergence, 250 g ai/ha
  Radish, Wild plant response rating: 75
[19]; postemergence, 62 g ai/ha
  Radish, Wild plant response rating: 55
[20]; Postemergence, 31 g ai/ha
  Windgrass plant response rating: 15
[20]; Postemergence, 125 g ai/ha
  Windgrass plant response rating: 25
[20]; Postemergence, 250 g ai/ha
  Windgrass plant response rating: 35
[20]; postemergence, 62 g ai/ha
  Windgrass plant response rating: 15
